As a reminder, the IC50 is the midpoint of a concentration-inhibition curve. Low readings indicate greater potency, high ones weaker potency. The ED50 is the midpoint of the dose-response relation. The inhibition is the change of the read-out against control, counted positive when it falls.

20 compounds from ChEMBL document CHEMBL1153762, “Novel, broad-spectrum anticonvulsants containing a sulfamide group: advancement of N-((benzo[b]thien-3-yl)methyl)sulfamide (JNJ-26990990) into human clinical studies” (J Med Chem, 2009) can be followed below.

Data set [1] has as its system Mus musculus. In words: Anticonvulsant activity against maximal electroshock-induced seizure in CD1 mouse at 100 mg/kg, po after 2 hrs. On the set-up: dose 100 mg/kg. The data set is classed as functional, organism-based. (In the maximal electroshock model the usual endpoint is tonic extension of the hind limbs.)
The target in data set [2] is T1, Carbonic anhydrase 2 (Homo sapiens, UniProt P00918). Kind of data set: Inhibition of human carbonic anhydrase 2 by fluorimetric assay.
Data set [3] has as its system Mus musculus. In words: Anticonvulsant activity against maximal electroshock-induced seizure in po dosed CF1 mouse after 1 hr. It is filed as functional.
The target of data set [4] is T1, Carbonic anhydrase 2. Kind of data set: Inhibition of human carbonic anhydrase 2 at 100 uM by CO2 hydration assay.
The subject of data set [5] is Mus musculus. In words: Anticonvulsant activity against maximal electroshock-induced seizure in CD1 mouse at 100 mg/kg, po after 0.5 hrs. The data set is classed as functional, organism-based. On the set-up: dose 100 mg/kg.
The subject of data set [6] is Mus musculus. In words: Anticonvulsant activity against picrotoxin-induced seizure in ip dosed CF1 mouse after 0.25 hrs. The data set is classed as functional.
The test system of data set [7] is Rattus norvegicus. Kind of data set: Anticonvulsant activity against electric stimulation-induced pharmacoresistant limbic epilepsy in Sprague-Dawley rat kindling model assessed as reduction of seizure severity and excitability at > 300 mg/kg, ip administered 15 mins after last electric stimulation. The data set is classed as functional, organism-based. On the set-up: dose 300 mg/kg. As to conditions: Limbic system.

Data set [8] addresses T1, Carbonic anhydrase 2.
Description: Inhibition of human carbonic anhydrase 2 by CO2 hydration assay
For data set [9], the system named is Mus musculus. In words: Anticonvulsant activity against maximal electroshock-induced seizure in CD1 mouse at 300 mg/kg, po after 0.5 hrs. It is filed as functional, organism-based. Also noted: dose 300 mg/kg.
Data set [10] relates to Mus musculus. Kind of data set: Neurotoxicity in mouse assessed as motor impairment 400 mg/kg, ip by rotarod test. It is filed as toxicity, organism-based. On the set-up: dose 400 mg/kg, route intraperitoneal. As to conditions: in vivo. A general note: Falling from the rotarod earlier than controls is read as motor impairment.
The target of data set [11] is Sodium channel protein type 2 subunit alpha (Rattus norvegicus) (UniProt P04775). In words: Inhibition of rat Nav1.2 channel expressed in chinese hamster CHL1610 cells at preconditioning pulse of -107 to -67 mV up to 300 uM after 2 to 3 mins by whole-cell patch-clamp technique. It is filed as cell-based.
Chain of Sodium channel protein type 2 subunit alpha (Rattus norvegicus) (P04775 whole entry, looked up): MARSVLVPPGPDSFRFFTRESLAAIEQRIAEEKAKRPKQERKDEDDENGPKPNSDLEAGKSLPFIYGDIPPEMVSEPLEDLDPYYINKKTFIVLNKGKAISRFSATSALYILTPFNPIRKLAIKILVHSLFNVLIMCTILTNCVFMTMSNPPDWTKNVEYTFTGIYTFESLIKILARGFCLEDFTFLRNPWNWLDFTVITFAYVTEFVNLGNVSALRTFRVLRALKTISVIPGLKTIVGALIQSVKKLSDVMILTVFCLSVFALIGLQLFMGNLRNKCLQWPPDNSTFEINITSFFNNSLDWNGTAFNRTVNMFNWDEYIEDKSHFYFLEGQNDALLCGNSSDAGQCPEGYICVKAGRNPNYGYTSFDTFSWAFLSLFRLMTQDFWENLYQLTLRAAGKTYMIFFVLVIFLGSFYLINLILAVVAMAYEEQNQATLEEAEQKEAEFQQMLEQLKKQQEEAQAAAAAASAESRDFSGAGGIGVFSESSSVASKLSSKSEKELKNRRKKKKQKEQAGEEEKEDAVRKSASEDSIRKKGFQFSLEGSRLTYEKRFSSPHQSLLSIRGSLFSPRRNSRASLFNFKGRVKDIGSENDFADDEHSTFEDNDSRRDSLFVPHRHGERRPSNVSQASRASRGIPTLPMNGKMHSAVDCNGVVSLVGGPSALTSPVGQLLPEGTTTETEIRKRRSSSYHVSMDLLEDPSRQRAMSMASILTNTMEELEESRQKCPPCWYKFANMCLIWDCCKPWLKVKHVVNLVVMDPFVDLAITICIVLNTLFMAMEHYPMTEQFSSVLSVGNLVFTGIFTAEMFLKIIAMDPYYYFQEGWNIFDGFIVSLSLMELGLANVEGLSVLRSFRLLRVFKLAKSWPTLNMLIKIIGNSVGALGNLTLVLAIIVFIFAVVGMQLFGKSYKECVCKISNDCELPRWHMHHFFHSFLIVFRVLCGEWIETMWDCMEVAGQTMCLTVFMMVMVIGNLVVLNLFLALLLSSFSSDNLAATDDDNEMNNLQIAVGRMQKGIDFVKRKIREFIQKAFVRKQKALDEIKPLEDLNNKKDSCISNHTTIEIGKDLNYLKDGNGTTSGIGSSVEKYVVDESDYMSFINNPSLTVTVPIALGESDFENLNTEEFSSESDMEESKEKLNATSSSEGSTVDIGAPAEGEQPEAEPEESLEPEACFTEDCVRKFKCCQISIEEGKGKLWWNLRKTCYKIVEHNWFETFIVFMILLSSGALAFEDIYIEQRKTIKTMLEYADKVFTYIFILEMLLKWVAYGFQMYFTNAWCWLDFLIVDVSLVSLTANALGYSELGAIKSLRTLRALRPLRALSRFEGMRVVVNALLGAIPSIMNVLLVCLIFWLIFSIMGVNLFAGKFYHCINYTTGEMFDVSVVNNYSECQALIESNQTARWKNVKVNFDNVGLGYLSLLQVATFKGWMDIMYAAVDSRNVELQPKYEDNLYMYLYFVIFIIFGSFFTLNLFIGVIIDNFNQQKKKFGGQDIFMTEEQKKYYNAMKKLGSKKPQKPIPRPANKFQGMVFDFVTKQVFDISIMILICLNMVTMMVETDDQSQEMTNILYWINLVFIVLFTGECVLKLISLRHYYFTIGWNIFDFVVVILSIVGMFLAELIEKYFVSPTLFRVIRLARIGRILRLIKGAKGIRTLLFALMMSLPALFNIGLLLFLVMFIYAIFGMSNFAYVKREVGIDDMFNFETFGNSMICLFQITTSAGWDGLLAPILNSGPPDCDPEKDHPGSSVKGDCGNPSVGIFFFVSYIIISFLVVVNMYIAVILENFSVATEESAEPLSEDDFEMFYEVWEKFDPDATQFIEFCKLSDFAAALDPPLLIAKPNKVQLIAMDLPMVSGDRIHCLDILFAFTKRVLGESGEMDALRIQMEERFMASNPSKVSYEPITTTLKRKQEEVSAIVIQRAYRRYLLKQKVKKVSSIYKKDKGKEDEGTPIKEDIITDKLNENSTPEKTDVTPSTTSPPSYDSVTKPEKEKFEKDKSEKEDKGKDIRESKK
Data set [12] deals with Mus musculus. In words: Anticonvulsant activity against maximal electroshock-induced seizure in CD1 mouse at 300 mg/kg, po after 4 hrs. Also noted: dose 300 mg/kg. It is filed as functional, organism-based.
Data set [13] concerns Mus musculus. Kind of data set: Anticonvulsant activity against maximal electroshock-induced seizure in po dosed CD1 mouse after 0.5 hrs. The data set is classed as functional.
Data set [14] relates to Rattus norvegicus. In words: Anticonvulsant activity against electric stimulation-induced pharmacoresistant limbic epilepsy in ip dosed Sprague-Dawley rat kindling model assessed as reduction of seizure severity and excitability administered 15 mins after last electric stimulation measured after 15 mins to 1 hr. As to conditions: Limbic system. The data set is classed as functional.

Data set [15] has as its system Mus musculus. In words: Anticonvulsant activity against maximal electroshock-induced seizure in CD1 mouse at 300 mg/kg, po after 2 hrs. On the set-up: dose 300 mg/kg. It is filed as functional, organism-based.
The test system of data set [16] is Rattus norvegicus. In words: Anticonvulsant activity against maximal electroshock-induced seizure in po dosed rat. The data set is classed as functional.
In data set [17] the test system is Mus musculus. In words: Anticonvulsant activity against bicuculline-induced seizure in ip dosed CF1 mouse after 0.25 hrs. It is filed as functional.
The test system of data set [18] is Mus musculus. Kind of data set: Anticonvulsant activity against pentylenetetrazole-induced seizure in ip dosed CF1 mouse after 0.25 hrs. The data set is classed as functional.
The test system of data set [19] is Mus musculus. Kind of data set: Anticonvulsant activity against pentylenetetrazole-induced seizure in CF1 mouse assessed as increase in threshold of seizure twitch at 107 mg/kg, ip administered 15 mins before pentylenetetrazole infusion. The data set is classed as functional. The note with it: route intraperitoneal.
Data set [20] has as its system Mus musculus. Kind of data set: Anticonvulsant activity against pentylenetetrazole-induced seizure in CF1 mouse assessed as increase in seizure threshold for clonus at 107 mg/kg, ip administered 15 mins before pentylenetetrazole infusion. It is filed as functional. As to conditions: route intraperitoneal.
Data set [21] relates to Mus musculus. In words: Anticonvulsant activity against pentylenetetrazole-induced seizure in ip CF1 mouse assessed as increase in threshold of seizure twitch at ED50 administered 15 mins before pentylenetetrazole infusion. It is filed as functional, organism-based.
Data set [22] concerns Mus musculus. Kind of data set: Anticonvulsant activity against pentylenetetrazole-induced seizure in ip dosed CF1 mouse assessed as increase in seizure threshold for clonus at ED50 administered 15 mins before pentylenetetrazole infusion. The data set is classed as functional, organism-based.
Data set [23] relates to Mus musculus. Kind of data set: Anticonvulsant activity against pentylenetetrazole-induced seizure in ip dosed CF1 mouse assessed as increase in seizure threshold for clonus at TD50 administered 15 mins before pentylenetetrazole infusion. It is filed as functional, organism-based.
Data set [24] relates to Mus musculus. Kind of data set: Anticonvulsant activity against pentylenetetrazole-induced seizure in ip dosed CF1 mouse assessed as increase in threshold of seizure twitch at TD50 administered 15 mins before pentylenetetrazole infusion. It is filed as functional, organism-based.
Data set [25] has as its system Rattus norvegicus. Kind of data set: Anticonvulsant activity against maximal electroshock-induced seizure in po dosed Sprague-Dawley rat after 2 hrs. It is filed as functional.
For data set [26], the system named is Rattus norvegicus. In words: Anticonvulsant activity against maximal electroshock-induced seizure in po dosed rat after 4 hrs. The data set is classed as functional.
For data set [27], the system named is Mus musculus. Kind of data set: Anticonvulsant activity against audiogenic seizures in ip dosed AGS mouse assessed as inhibition of hindlimb tonic extension administered 1 hr prior to 11 kHz sound induction. The data set is classed as functional.
For data set [28], the target named is Sodium channel protein type 2 subunit alpha (Rattus norvegicus, UniProt P04775). Kind of data set: Inhibition of rat Nav1.2 channel expressed in chinese hamster CHL1610 cells at preconditioning pulse of -67 mV after 2 to 3 mins by whole-cell patch-clamp technique. It is filed as cell-based. In general terms: Patch clamp records ionic current or voltage across a cell membrane.
Chain of Sodium channel protein type 2 subunit alpha (P04775 whole entry): as the sequence (P04775 whole entry, looked up) above

The subject of data set [29] is Mus musculus. In words: Anticonvulsant activity against maximal electroshock-induced seizure in CD1 mouse at 100 to 300 mg/kg, po after 0.5 to 8 hrs. The data set is classed as functional, organism-based.
In data set [30] the test system is Rattus norvegicus. Kind of data set: Anticonvulsant activity against electric stimulation-induced pharmacoresistant limbic epilepsy in Sprague-Dawley rat kindling model assessed as reduction of seizure severity and excitability at > 26 mg/kg, ip administered 15 mins after last electric stimulation. The data set is classed as functional, organism-based. Also noted: dose 26 mg/kg. As to conditions: Limbic system.

[31] abbreviates: Mus musculus, CF1, po, 1 h, read-out: ED50.

Structures are written as SMILES. Calls of active or inactive are those of the source.

Regarding `NS(=O)(=O)NCc1c[nH]c2ccccc12`, the outcome in the data set on Mus musculus [1] was inactive. Besides, the midpoint of inhibition against Carbonic anhydrase 2 [2], the IC50, lay at 300 µM.

As to `Cc1ccc2scc(CNS(N)(=O)=O)c2c1`, the ED50 in the data set on Mus musculus [3] (setting [31]) was greater than 400 mg/kg. For the same compound, at Carbonic anhydrase 2 [2], the IC50 amounted to 45 µM. At Carbonic anhydrase 2 [4], this compound registered an inhibition of 44%.

Take `NS(=O)(=O)NCc1cccc2ccccc12`: the ED50 in the data set with Mus musculus [3] (setting [31]) came out at 123 mg/kg.

In turn, `NS(=O)(=O)NCc1csc2ccc(Br)cc12` returned an IC50 against Carbonic anhydrase 2 [2] of 100 µM.

For the compound `NS(=O)(=O)NCc1csc2ccc(F)cc12`, the result with Mus musculus [5] was inactive. Also, the median effective dose (ED50) with Mus musculus [3] (setting [31]) worked out at 231 mg/kg.

In the case of `CCCC(CCC)C(=O)O` [VALPROIC ACID], the ED50 in the data set on Mus musculus [6] was greater than 200 mg/kg. Also, the outcome in the data set on Rattus norvegicus [7] was Active.

As for `CC(NS(N)(=O)=O)c1csc2ccccc12` (racemic), half-maximal inhibition on Carbonic anhydrase 2 [8] (IC50) required 130 µM.

Turning to `NS(=O)(=O)NCc1coc2ccccc12`, the result in the data set with Mus musculus [5] and in the data set with Mus musculus [1] was inactive. For the same compound, the result in the data set on Mus musculus [9] was Active. Besides, the ED50 in the data set with Mus musculus [3] (setting [31]) was greater than 400 mg/kg. Also, the Activity result in the data set with Mus musculus [10] is reported as “Non-toxic”.

With `NCC1(CC(=O)O)CCCCC1`, in data set [11], the inhibition result was “inactive”.

Regarding `NS(=O)(=O)NCc1ccccc1`, the result with Mus musculus [5], in the data set on Mus musculus [9] and in the data set on Mus musculus [12] was Active. The ED50 with Mus musculus [13] came to 440 mg/kg.

For `CCC1(C)CC(=O)NC1=O` (stereo not drawn), in the data set on Rattus norvegicus [14], the outcome was inactive.

For `NS(=O)(=O)NCc1csc2ccc(Cl)cc12`, the outcome with Mus musculus [5], in the data set on Mus musculus [1] and in the data set with Mus musculus [9] was inactive. Moreover, on Carbonic anhydrase 2 [2], the IC50 was determined as 8.4 µM.

With `CC1(C)O[C@@H]2[C@@H](CO[C@@]3(COS(N)(=O)=O)OC(C)(C)O[C@@H]23)O1` [TOPIRAMATE], the result with Mus musculus [15], with Mus musculus [21], with Mus musculus [22], in the data set on Mus musculus [23] and in the data set with Mus musculus [24] was inactive. The ED50 with Mus musculus [3] was 43.8 mg/kg; with Rattus norvegicus [16], 6.6 mg/kg; in the data set on Mus musculus [17], greater than 500 mg/kg; in the data set with Mus musculus [18] it was greater than 500 mg/kg; with Rattus norvegicus [25] it was 6.6 mg/kg; in the data set on Rattus norvegicus [26], 53.5 mg/kg. The ED50 in the data set with Mus musculus [27] is 4.2 mg/kg. Besides, the Activity in the data set on Mus musculus [19] and in the data set with Mus musculus [20] was 0% each time. The compound also registered an IC50 in [28] of 97 µM.

Regarding `CCCCNS(N)(=O)=O`, the result in the data set on Mus musculus [29] was inactive.

The compound `Nc1nnc(-c2cccc(Cl)c2Cl)c(N)n1` [LAMOTRIGINE] showed an IC50 in [28] of 35 µM.

As for `CC[C@@H](C(N)=O)N1CCCC1=O`, the ED50 in the data set with Mus musculus [17] (Mus musculus, CF1, ip, 0.25 h, read-out: ED50) is greater than 540 mg/kg.

As to `O=C1NC(=O)C(c2ccccc2)(c2ccccc2)N1` [PHENYTOIN], the outcome in the data set on Rattus norvegicus [14] was Active. Inhibition in [28] was half-maximal at 22 µM (IC50).

`NC(=O)N1c2ccccc2C=Cc2ccccc21`: in the data set on Rattus norvegicus [30], the result was Active.

In the case of `Cc1oc2ccccc2c1CNS(N)(=O)=O`, the outcome with Mus musculus [1] was inactive.

As to `Cn1cc(CNS(N)(=O)=O)c2ccccc21`, the outcome in the data set with Mus musculus [5] and in the data set on Mus musculus [1] was inactive. Moreover, the outcome with Mus musculus [9] was Active. The 50% effective dose (ED50) in the data set on Mus musculus [3] (setting [31]) turned out to be 345 mg/kg.
